The values below come from the NIST ThermoML archive (doi:10.1021/je900460m).

For orientation: mass density means mass per unit of volume. As a reminder, the viscosity is the resistance of a fluid to flow.

Numbers after ± are expanded uncertainties.

Regarding `CCCCCCn1cc[n+](C)c1.N#C[S-]` [1-hexyl-3-methylimidazolium thiocyanate], the mass density (298.15 K, 101.33 kPa, Liquid, Pycnometric method) was found to be 1056.92 ± 11 kg/m3. In addition, the viscosity (298.15 K, Liquid, Capillary tube (Ostwald / Ubbelohde) method) is 93.62 ± 3.1 mPa·s. Moreover, the Glass transition temperature (Glass, visual observation) was -83.2 ± 3 °C.
